Assay results as given in patent US20110288072A1, “Use of ivabradine for obtaining medicaments intended for the treatment of endothelial dysfunction” (LES LABORATOIRES SERVIER, priority 2007, published 2011).

Columns and labels:
rats with heart failure = assay: Endothelial function of isolated coronary and mesenteric arteries (myograph) in rats with heart failure; format: in vivo, rat; conditions: 10 mg/kg per day for 3 months
Description: (§1) The impact of treatment with ivabradine on endothelial function was studied in two pathological animal models, dyslipidaemic mice, and rats with heart failure, on 4 different vascular beds, renal and cerebral arteries in the mouse, coronary and mesenteric arteries in the rats. Study of the endothelial function comprises measuring the capacity of the vessel to dilate in response to various stimuli, such as acetylcholine, or measuring the increase in flow in the vessel.
(§2) Some animals were treated with ivabradine, 10 mg/kg per day for 3 months. Dyslipidaemic mice, rats with heart failure, healthy mice (Wild type) and healthy rats, untreated, acted as controls. At the end of the treatment period, the arteries were isolated and mounted in a myograph in order to measure their diameter after the application of acetylcholine or to measure the increase in flow. In order to explore more closely the mechanism associated with endothelial dysfunction, inhibitors of the principal pathways of vasodilation were tested: a free-radical chelating agent, a nitrogen monoxide production inhibitor, a prostacyclin pathway inhibitor.

dyslipidaemic mice = assay: Endothelial function and compliance of isolated renal and cerebral arteries (myograph) in dyslipidaemic mice; format: in vivo, mouse; conditions: 10 mg/kg per day for 3 months
Description: as §1, §2
The compliance (capacity of the vessel to dilate as the transmural pressure increases) of the cerebral arteries of the mice was also evaluated.

[1] = tested on: dyslipidaemic mice, and rats with heart failure; assay: Cardiac frequency after 3 months' treatment in the animal models; format: in vivo, mouse, rat; conditions: 10 mg/kg per day for 3 months
[2] = tested on: dyslipidaemic mice, and rats with heart failure; assay: Mechanism of endothelial dysfunction explored with inhibitors of the principal pathways of vasodilation; format: in vivo, mouse, rat; conditions: mechanism of the beneficial effects; 10 mg/kg per day for 3 months
Description: as §2

Question: Which “endothelial dysfunction (capacity to dilate) in the coronary artery” value (rats with heart failure; HF rat, FIG. 1A) does the source give for COc1cc2c(cc1OC)CC(=O)N(CCCN(C)C[C@H]1Cc3cc(OC)c(OC)cc31)CC2 [ivabradine, 3-{3-[{[(7S)-3,4-dimethoxybicyclo [4.2.0]octa-1,3,5-trien-7-yl]-methyl}-(methyl)-amino]-propyl}-7,8-dimethoxy-1,3,4,5-tetrahydro-2H-3-benzazepin-2-one] here?
Answer: Its value is “completely prevents entothelial dysfunction”.

Question: What about the “capacity of the mesenteric artery to dilate” value (rats with heart failure; treated HF rat compared with untreated HF rat, FIG. 1B) of the same compound?
Answer: The value was “appreciably improved”.

Question: And the “endothelial dysfunction (capacity to dilate) in the cerebral artery” value (dyslipidaemic mice; DL mouse, FIG. 1C, D)?
Answer: Its value is “completely prevents entothelial dysfunction”.

Question: And the “endothelial dysfunction (capacity to dilate) in the renal artery” value (dyslipidaemic mice; DL mouse, FIG. 1C, D)?
Answer: Its value is “completely prevents entothelial dysfunction”.

Question: What about the “compliance of the isolated cerebral arteries” value (dyslipidaemic mice; treated mice) of the same compound?
Answer: The value was “improved”.

Question: What about the “reduction in cardiac frequency” value [1] of the same compound?
Answer: Its value is 10-20%.

Question: And the nitrogen monoxide pathway [2]?
Answer: Its nitrogen monoxide pathway is “preservation of the nitrogen monoxide pathway”.

Question: And the oxidative stress [2]?
Answer: The oxidative stress was “decrease in oxidative stress”.
